Reference: the supplement of paper PMC9938120

Key:
Experiment in all cases: drug sensitivity score (DSS3, normalised partial AUC of % inhibition dose-response) (DSS (score)); higher = more sensitive (stronger inhibition of viability); extreme values may be limits of the assay
[1] = tested on: FMOC06 (patient-derived mucinous ovarian cancer cells); conditions: 72 h; library: FO5A; assay format: 2D, 384-well, CellTiter-Glo
How it was run: (§1)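 Early-passage (under 10) patient-derived ovarian cancer cells were dispensed onto 384-well flat clear-bottom plates pre-plated with compounds at five concentrations spanning a 10,000-fold range, then incubated 72 h at 37 °C, 5% CO2. Viability was read with CellTiter-Glo, and the data were processed in Breeze. The drug sensitivity score is a partial area under the percent-inhibition dose-response curve divided by the log of the upper asymptote, with higher values meaning greater sensitivity.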

[2] = tested on: FMOC02_2 (patient-derived low-grade serous ovarian cancer cells); conditions: 72 h; library: FO5A; assay format: 2D, 384-well, CellTiter-Glo
How it was run: as §1

[3] = tested on: FMOC25_1 (patient-derived low-grade serous ovarian cancer cells); conditions: 72 h; library: FO4B; assay format: 2D, 384-well, CellTiter-Glo
How it was run: as §1

[4] = tested on: FMOC02_3 (patient-derived low-grade serous ovarian cancer cells); conditions: 72 h; library: FO5A; assay format: 2D, 384-well, CellTiter-Glo
How it was run: as §1

[5] = tested on: FMOC04 (patient-derived high-grade serous ovarian cancer cells); conditions: 72 h; library: FO5A; assay format: 2D, 384-well, CellTiter-Glo
How it was run: as §1

[6] = tested on: FMOC09 (patient-derived high-grade serous ovarian cancer cells); conditions: 72 h; library: FO5A; assay format: 2D, 384-well, CellTiter-Glo
How it was run: as §1

[7] = tested on: FMOC27 (patient-derived low-grade serous ovarian cancer cells); conditions: 72 h; library: FO5A; assay format: 2D, 384-well, CellTiter-Glo
How it was run: as §1

[8] = tested on: FMOC24 (patient-derived high-grade serous ovarian cancer cells); conditions: 72 h; library: FO5A; assay format: 2D, 384-well, CellTiter-Glo
How it was run: as §1

[9] = tested on: FMOC22 (patient-derived mucinous ovarian cancer cells); conditions: 72 h; library: FO5A; assay format: 2D, 384-well, CellTiter-Glo
How it was run: as §1

[10] = tested on: FMOC11 (patient-derived high-grade serous ovarian cancer cells); conditions: 72 h; library: FO5A; assay format: 2D, 384-well, CellTiter-Glo
How it was run: as §1

[11] = tested on: FMOC14 (patient-derived high-grade serous ovarian cancer cells); conditions: 72 h; library: FO5A; assay format: 2D, 384-well, CellTiter-Glo
How it was run: as §1

[12] = tested on: FMOC25_2 (patient-derived low-grade serous ovarian cancer cells); conditions: 72 h; library: FO5A; assay format: 2D, 384-well, CellTiter-Glo
How it was run: as §1

[13] = tested on: FMOC03 (patient-derived mucinous ovarian cancer cells); conditions: 72 h; library: FO5A; assay format: 2D, 384-well, CellTiter-Glo
How it was run: as §1

[14] = tested on: FMOC17 (patient-derived low-grade serous ovarian cancer cells); conditions: 72 h; library: FO5A; assay format: 2D, 384-well, CellTiter-Glo
How it was run: as §1

[15] = tested on: FMOC28 (patient-derived low-grade serous ovarian cancer cells); conditions: 72 h; library: FO5A; assay format: 2D, 384-well, CellTiter-Glo
How it was run: as §1

[16] = tested on: FMOC02_1 (patient-derived low-grade serous ovarian cancer cells); conditions: 72 h; library: FO5A; assay format: 2D, 384-well, CellTiter-Glo
How it was run: as §1

Compound | drug sensitivity score [1] | drug sensitivity score [2] | drug sensitivity score [3] | drug sensitivity score [4] | drug sensitivity score [5] | drug sensitivity score [6] | drug sensitivity score [7] | drug sensitivity score [8] | drug sensitivity score [9] | drug sensitivity score [10] | drug sensitivity score [11] | drug sensitivity score [12] | drug sensitivity score [13] | drug sensitivity score [14] | drug sensitivity score [15] | drug sensitivity score [16]
COc1ccc(Cn2ccc3ccc(C(=O)NO)cc32)cc1 | 0.2 | 3.4 | 0.8 | 1.8 | 0 | 1.1 | 0.2 | 0.4 | 0.4 | 0.6 | 1.1 | 2.5 | 1.1 | 1.4 | 4.9 | 1
C[C@@H]1CN(CC(=O)Nc2ccc3c(c2)Cc2cccc(-c4cc(=O)cc(N5CCOCC5)o4)c2S3)C[C@H](C)O1 | 0.6 | 0.5 | 3.4 | 0.2 | 1.9 | 0 | 0 | 5.75 | 0.8 | 1 | 0.3 | 1 | 0.9 | 0.2 | 0 | 0.5
C[C@H]1Oc2cc(cnc2N)-c2c(nn(C)c2C#N)CN(C)C(=O)c2ccc(F)cc21 | 3.4 | 3.2 | 0 | 3.1 | 0 | 1.6 | 0 | 1.6 | 0 | 0 | 0 | 1.6 | 0 | 0 | 0 | 0.8
Cc1ccc(C(=O)N(CCCN)[C@@H](c2oc3cc(Cl)ccc3c(=O)c2Cc2ccccc2)C(C)C)cc1 | 1.1 | 2.4 | 1.9 | 2.5 | 2.4 | 2.4 | 0 | 0 | 1.3 | 1.9 | 0 | 5.6 | 1.8 | 1.3 | 5 | 3.3
Cc1cccc(CC(=O)N2CCc3c2ccc(-c2cn(C)c4ncnc(N)c24)c3F)n1 | 0 | 0 | 0.2 | 0 | 0 | 0 | 0 | 0 | 0.2 | 0 | 0 | 1.6 | 0 | 0 | 0 | 0
Cc1ncc(Cl)cc1NCc1ccc(C(=O)N[C@@H](CC2CCCC2)C(=O)NC2CC2)s1 | 0.2 | 0 | 0 | 7.1 | 0 | 0 | 1.5 | 2.05 | 0.1 | 0 | 0 | 0 | 0 | 0 | 0 | 0
N#Cc1ccc(COC[C@H]2O[C@@H](n3c(NCc4ccc(Cl)c(Cl)c4)nc4c(N)ncnc43)[C@H](O)[C@@H]2O)cc1 | 5.5 | 2.6 | 6.6 | 6.6 | 0.95 | 2 | 1.6 | 2.1 | 4.2 | 3.2 | 2.5 | 0 | 6 | 5.6 | 0 | 7.6
NC[C@@](O)(c1ccc(Cl)cc1)c1ccc(-c2cn[nH]c2)cc1 | 1.5 | 0.4 | 2.8 | 0 | 0 | 2.6 | 0 | 4.55 | 1.1 | 2.8 | 0 | 0.4 | 0.3 | 0 | 2.8 | 4.1
O=C(NC[C@H](O)CN1CCc2ccccc2C1)c1cc(NC2COC2)ncn1 | 0 | 0 | 1 | 1.3 | 0 | 0.3 | 1.1 | 0.5 | 1.8 | 0 | 0 | 0.2 | 0 | 0 | 0 | 0
O=C(O)c1ccc(CN2CCC(CN[C@@H]3C[C@H]3c3ccccc3)CC2)cc1 | 0 | 0 | 0 | 1.6 | 0.4 | 0 | 0 | 0.9 | 0 | 0 | 0 | 0 | 0 | 0 | 0 | 0.4
O=c1[nH]c(C2CCCN2)nc2c1oc1ccc(Cl)cc12 (centres undefined) | 0 | 0 | 2 | 3.9 | 0 | 0 | 0 | 0 | 0 | 0.4 | 0 | 0 | 0.3 | 0 | 4.4 | 2.7
Cn1cc(C[C@@H](N)C(=O)O)c2ccccc21 [1-methyl-D-tryptophan] | 0 | 0 | 0 | 0 | 0 | 0.2 | 0 | 0 | 0 | 0 | 0 | 0 | 0 | 0 | 0.5 | 0
CC1CCC(n2c3cnccc3c3cnc(Nc4ccc5c(n4)CCN(C(=O)CO)C5)nc32)CC1 (centres undefined) [AMG-925] | 0 | 0 | 0.7 | 1.3 | 0 | 0 | 0.9 | 0 | 0.2 | 0 | 0 | 0.5 | 0 | 0 | 0 | 0
COCC1(CO)C(=O)C2CCN1CC2 (centres undefined) [APR-246] | 0 | 0 | 0 | 0 | 0 | 0 | 0 | 0.05 | 0 | 0 | 0 | 0 | 0 | 0 | 0 | 0
COc1cc(N2CCN(C)CC2)ccc1Nc1nccc(-c2cn(C)c3cnccc23)n1 [AZ191] | 1.9 | 3.8 | 0 | 2.9 | 0.2 | 2.2 | 1.6 | 6.15 | 0.7 | 1.4 | 0.4 | 1.5 | 0.5 | 1.7 | 2.3 | 4
COc1cc(OC2CCN(C)CC2)ccc1Nc1ncc2c(n1)n(C1CCCC1)c(=O)n2C [AZ 3146] | 2.9 | 5.2 | 3.7 | 9 | 1.3 | 1.1 | 4.4 | 6.25 | 0.8 | 1.3 | 0.9 | 6 | 0.7 | 4.7 | 2.3 | 5.2
N[C@@H]1CCCN(c2c(/C=C3\SC(=O)NC3=O)cccc2-c2ccccc2)C1 [AZD1208] | 4.7 | 0 | 0.5 | 5.9 | 0 | 3.2 | 0 | 0 | 0 | 0 | 0 | 2.4 | 0 | 0 | 0 | 1
Cc1cc(Nc2nc(N[C@@H](C)c3ncc(F)cn3)ncc2Cl)[nH]n1 [AZD1480] | 0 | 0.8 | 0 | 1.6 | 0 | 0 | 0 | 0 | 0 | 0 | 0 | 0.3 | 0 | 0.1 | 0 | 0.8
COc1cc(CCc2cc(NC(=O)c3ccc(N4CC(C)NC(C)C4)cc3)n[nH]2)cc(OC)c1 (centres undefined) [AZD4547] | 0 | 0 | 0 | 0 | 0 | 0 | 0 | 0 | 0 | 0 | 0 | 0 | 0 | 0 | 0 | 0
CN(C)C(=O)c1ccc(S(=O)(=O)c2ccc(NC(=O)[C@@](C)(O)C(F)(F)F)c(Cl)c2)cc1 [AZD7545] | 0 | 0 | 0 | 0 | 0 | 0 | 0 | 0 | 0.8 | 0 | 0.4 | 0 | 0 | 0 | 2.4 | 0
N#Cc1ccc2[nH]c(O)c(-c3ccc(CN4CCOCC4)cn3)c2c1 [AZD-1080] | 0 | 0 | 0 | 5.1 | 0.15 | 0 | 0 | 1.15 | 0 | 0 | 0 | 5.3 | 0 | 0.4 | 0 | 1.4
Cc1cc([C@@H](C)Nc2ccccc2C(=O)O)c2nc(N3CCOCC3)cc(=O)n2c1 [AZD-6482] | 0 | 0.6 | 2.5 | 2.3 | 0 | 0.1 | 0 | 0.5 | 0 | 0.9 | 0.4 | 0.8 | 0.5 | 2.8 | 0 | 0
C[C@@H](Nc1cc(F)cc(F)c1)c1cc(C(=O)N(C)C)cc2c(=O)cc(N3CCOCC3)oc12 [AZD-8186] | 3 | 2.6 | 1.5 | 3.3 | 0.75 | 2.4 | 5.3 | 0 | 0 | 1.8 | 0 | 2.1 | 1.6 | 4.9 | 1.6 | 1.5
CCN1CCN(Cc2ccc(Nc3ncc(F)c(-c4cc(F)c5nc(C)n(C(C)C)c5c4)n3)nc2)CC1 [Abemaciclib] | 4 | 6.6 | 0.1 | 11.6 | 0.35 | 2.1 | 3.2 | 1.7 | 0 | 0.8 | 0.1 | 7.5 | 2.3 | 3.4 | 0 | 7
